This passage reports Ki and IC50 results from US20050101595A1, “N-containing cycloalkyl-substituted amino-thiazole derivatives and pharmaceutical compositions for inhibiting cell proliferation and methods for their use” (PFIZER INC., priority 2003, published 2005).

One may read the IC50 as the concentration that gives 50% inhibition.

Counter-ions that a name gives are not always drawn. Like-named read-outs stand apart in the source and are kept apart here. Where only a bound is given, the exact number is not on record here.

One test concerns the target CDK2/Cyclin A (Homo sapiens, UniProt P24941). In words: Inhibition of CDK2/Cyclin A Retinoblastoma Kinase Activity. Format: biochemical. The following applies: apparent Ki, CDK2/proteolyzed cyclin A, Rb fragment substrate, 25 μM ATP. The gist of the method:
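Human CDK2, baculovirus/insect-cell expressed, complexed with proteolyzed cyclin A (10 nM or 19 nM CDK2) phosphorylates an Rb fragment with 25 μM [32P/33P]ATP at pH 7.4, 30° C, for 60 or 75 minutes under initial-rate conditions. Filter-captured radioactivity is read by phosphorimager; apparent Ki from competitive-inhibition fits.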

In test [1] the target is human CDK4 and genetically truncated (1-264) cyclin D3 (Homo sapiens, UniProt P11802). In words: Inhibition of CDK4/Cyclin D Retinoblastoma Kinase Activity. It is filed as biochemical. The conditions noted are these: apparent Ki, CDK4/truncated cyclin D3, Rb fragment substrate, 25 μM ATP. The gist of the method:
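Read-out: 32P/33P incorporation into Rb fragment (386-928) captured on nitrocellulose, phosphorimager. Enzyme 5 nM CDK4/cyclin D3(1-264) from insect cells; ATP 25 μM, pH 7.4, 30 °C, 20 min (60 min for tight binders). Ki from competitive fits.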

The subject of another test is HCT-116 cell line. Briefly: Inhibition of cell growth, tetrazolium salt (MTT) assay. Format: cell-based. The following applies: Homo sapiens, HCT-116, 120 h, MTT, three to five days, read-out: HCT-116 IC50. The gist of the method:
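McCoy's 5A cultures; 4 h pre-incubation; compound dilutions in 0.5% v/v DMSO; 3–5 d, 37° C, 5% CO2; MTT 0.2 mg/mL final, 4 h; formazan dissolved in DMSO, A540; vs 0.5% DMSO vehicle.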

human CDK4 and genetically truncated (1-264) cyclin D3, sequence (P11802 whole entry, the tested form may be a part): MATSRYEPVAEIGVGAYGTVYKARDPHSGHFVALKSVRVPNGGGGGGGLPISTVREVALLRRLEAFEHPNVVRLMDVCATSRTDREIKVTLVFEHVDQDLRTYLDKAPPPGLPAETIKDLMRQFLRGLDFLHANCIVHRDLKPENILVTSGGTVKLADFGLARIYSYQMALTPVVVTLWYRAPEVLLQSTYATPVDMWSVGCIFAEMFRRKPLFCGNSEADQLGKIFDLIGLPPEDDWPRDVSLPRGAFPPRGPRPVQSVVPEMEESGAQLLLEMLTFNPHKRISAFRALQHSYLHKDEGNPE
human CDK4 and genetically truncated (1-264) cyclin D3, sequence (P30281 1-264 partner): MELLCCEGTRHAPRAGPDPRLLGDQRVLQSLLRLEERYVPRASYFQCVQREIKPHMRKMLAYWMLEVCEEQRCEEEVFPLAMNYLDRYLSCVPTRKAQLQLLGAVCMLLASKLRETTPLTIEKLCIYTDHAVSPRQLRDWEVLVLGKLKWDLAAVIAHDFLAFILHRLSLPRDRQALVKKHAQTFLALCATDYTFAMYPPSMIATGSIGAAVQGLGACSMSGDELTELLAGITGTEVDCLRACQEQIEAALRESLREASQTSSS

As to `Nc1nc(NC2CCN(S(=O)(=O)c3ccc(O)nc3)CC2)sc1C(=O)c1c(F)cccc1F` [Example H1, 1-{4-Amino-2-[1-(6-hydroxy-pyridine-3-sulfonyl)-piperidin-4-ylamino]-thiazol-5-yl}-1-(2,6-difluoro-phenyl)-methanone Trifluoroacetic Acid Salt], the Ki at CDK2/Cyclin A was < 1 nM; in test [1], 0.72 nM. In addition, the results for the IC50 with HCT-116 cell line (first HCT-116 column (c4)) and in the test on HCT-116 cell line (second HCT-116 column (c5)) were 2600 nM and > 5000 nM, respectively.

As for `Nc1nc(NC2CCN(S(=O)(=O)c3ccc(OCCN4CCOCC4)nc3)CC2)sc1C(=O)c1c(F)cccc1F` [Example H2, 1-{4-Amino-2-[1-{6-morpholin-(4-yl-ethoxy)-pyridine-3-sulfonyl}-piperidin-4-ylamino]-thiazol-5-yl}-1-(2,6-difluoro-phenyl)-methanone Hydrochloride], the Ki on CDK2/Cyclin A was found to be 2.8 nM; in test [1], 0.77 nM. Also, the IC50 in the test on HCT-116 cell line (first HCT-116 column (c4)) came to 80 nM; in the test on HCT-116 cell line (second HCT-116 column (c5)), 250 nM.

With `CN(C)CCOc1ccc(S(=O)(=O)N2CCC(Nc3nc(N)c(C(=O)c4c(F)cccc4F)s3)CC2)cn1` [Example H3, 1-(4-Amino-2-{1-[6-(2-dimethylamino-ethoxy)-pyridine-3-sulfonyl]-piperidin-4-ylamino}-thiazol-5-yl)-1-(2,6-difluoro-phenyl)-methanone Hydrochloride], the Ki on CDK2/Cyclin A was determined as 1.8 nM; in test [1], 0.67 nM. The IC50 turned out to be 51 nM in the test on HCT-116 cell line (first HCT-116 column (c4)) and 320 nM with HCT-116 cell line (second HCT-116 column (c5)).

As for `Nc1nc(NC2CCN(S(=O)(=O)c3ccc(OCCO)nc3)CC2)sc1C(=O)c1c(F)cccc1F` [Example H4, 1-(4-Amino-2-{1-[6-(2-hydroxy-ethoxy)-pyridine-3-sulfonyl]-piperidin-4-ylamino}-thiazol-5-yl)-1-(2,6-difluoro-phenyl)-methanone], the Ki on CDK2/Cyclin A was 0.7 nM; in test [1], 2.5 nM. The IC50 in the test on HCT-116 cell line (first HCT-116 column (c4)) stood at 100 nM; in the test with HCT-116 cell line (second HCT-116 column (c5)), 500 nM.

`Nc1nc(NC2CCN(S(=O)(=O)c3ccc(OCCN4CCCC4)nc3)CC2)sc1C(=O)c1c(F)cccc1F` [Example H5, 1-(4-Amino-2-{1-[6-(2-pyrrolidin-1-yl-ethoxy)-pyridine-3-sulfonyl]-piperidin-4-ylamino}-thiazol-5-yl)-1-(2,6-difluoro-phenyl)-methanone Trifluoroacetic Acid Salt]: the Ki on CDK2/Cyclin A came out at 1.1 nM; in test [1] it was 0.39 nM. The figures for the IC50 in the test with HCT-116 cell line (first HCT-116 column (c4)) and in the test with HCT-116 cell line (second HCT-116 column (c5)) were 71 nM and > 500 nM, respectively.

Consider `Nc1nc(NC2CCN(S(=O)(=O)c3ccc(OCCN4CCCCC4)nc3)CC2)sc1C(=O)c1c(F)cccc1F` [Example H6, 1-[4-Amino-2-{1-[6-(2-piperidin-1-yl-ethoxy)-pyridine-3-sulfonyl]-piperidin-4-ylamino}-thiazol-5-yl)-1-(2,6-difluoro-phenyl)-methanone Dihydrochloride], for which the Ki amounted to 0.84 nM on CDK2/Cyclin A and 0.38 nM in test [1]. Further, the IC50 was found to be 60 nM in the test on HCT-116 cell line (first HCT-116 column (c4)) and 500 nM in the test on HCT-116 cell line (second HCT-116 column (c5)).

Consider `CN1CCCC(COc2ccc(S(=O)(=O)N3CCC(Nc4nc(N)c(C(=O)c5c(F)cccc5F)s4)CC3)cn2)C1` (stereo not drawn) [Example H7, 1-[4-Amino-2-{1-[6-(1-methyl-piperidin-3RS-ylmethoxy)-pyridine-3-sulfonyl]-piperidin-4-ylamino}-thiazol-5-yl)-1-(2,6-difluoro-phenyl)-methanone Trifluoroacetic Acid Salt], for which the Ki is 0.8 nM on CDK2/Cyclin A and 0.21 nM in test [1]. Besides, the figures for the IC50 in the test on HCT-116 cell line (first HCT-116 column (c4)) and with HCT-116 cell line (second HCT-116 column (c5)) were 40 nM and 250 nM, respectively.

Turning to `Nc1nc(NC2CCN(S(=O)(=O)c3ccc(OCc4cccnc4)nc3)CC2)sc1C(=O)c1c(F)cccc1F` [Example H8, 1-(4-Amino-2-{1-[6-(pyridin-3-ylmethoxy)-pyridine-3-sulfonyl]-piperidin-4-ylamino}-thiazol-5-yl)-1-(2,6-difluoro-phenyl)-methanone Trifluoroacetic Acid Salt], the Ki at CDK2/Cyclin A is < 1 nM; in test [1], 0.67 nM. Also, the IC50 in the test with HCT-116 cell line (first HCT-116 column (c4)) was determined as 580 nM; in the test with HCT-116 cell line (second HCT-116 column (c5)), 1300 nM.

On to `Nc1nc(NC2CCN(S(=O)(=O)c3ccc(OCCn4ccnc4)nc3)CC2)sc1C(=O)c1c(F)cccc1F` [Example H9, 1-(4-Amino-2-{1-[6-(2-imidazol-1-yl-ethoxy)-pyridine-3-sulfonyl]-piperidin-4-ylamino}-thiazol-5-yl)-1-(2,6-difluoro-phenyl)-methanone Hydrochloride], for which the Ki was < 0.5 nM at CDK2/Cyclin A and 1.2 nM in test [1]. For the same molecule, the IC50 in the test on HCT-116 cell line (first HCT-116 column (c4)) was found to be 480 nM; with HCT-116 cell line (second HCT-116 column (c5)), 3100 nM.

For `CN1CCC[C@H](COc2ccc(S(=O)(=O)N3CCC(Nc4nc(N)c(C(=O)c5c(F)cccc5F)s4)CC3)cn2)C1` [Example H11, 1-(4-Amino-2-{1-[6-(1-methyl-piperidin-3S-ylmethoxy)-pyridine-3-sulfonyl]-piperidin-4-ylamino}-thiazol-5-yl)-1-(2,6-difluoro-phenyl)-methanone Dihydrochloride], the Ki on CDK2/Cyclin A was determined as 6.9 nM; in test [1], 0.28 nM. Also, the IC50 with HCT-116 cell line (first HCT-116 column (c4)) amounted to 42 nM; in the test with HCT-116 cell line (second HCT-116 column (c5)) it was 130 nM.

With `CN1CCC[C@H]1COc1ccc(S(=O)(=O)N2CCC(Nc3nc(N)c(C(=O)c4c(F)cccc4F)s3)CC2)cn1` [Example H12, 1-(4-Amino-2-{1-[6-(1-methyl-pyrrolidin-2S-ylmethoxy)-pyridine-3-sulfonyl]-piperidin-4-ylamino}-thiazol-5-yl)-1-(2,6-difluoro-phenyl)-methanone], the figures for the Ki (on CDK2/Cyclin A; in test [1]) were 0.88 nM and 0.39 nM, respectively. Also, the IC50 in the test on HCT-116 cell line (first HCT-116 column (c4)) was found to be 58 nM; with HCT-116 cell line (second HCT-116 column (c5)) it was 400 nM.

For the molecule `CN1CCC(Oc2ccc(S(=O)(=O)N3CCC(Nc4nc(N)c(C(=O)c5c(F)cccc5F)s4)CC3)cn2)CC1` [Example H14, 1-(4-Amino-2-{1-[6-(1-methyl-piperidin-4-yloxy)-pyridine-3-sulfonyl]-piperidin-4-ylamino}-thiazol-5-yl)-1-(2,6-difluoro-phenyl)-methanone Hydrochloride], the Ki at CDK2/Cyclin A was determined as 0.74 nM; in test [1], 0.34 nM. Moreover, the results for the IC50 in the test with HCT-116 cell line (first HCT-116 column (c4)) and with HCT-116 cell line (second HCT-116 column (c5)) were 40 nM and 400 nM, respectively.

For the molecule `CN(C)CCCOc1ccc(S(=O)(=O)N2CCC(Nc3nc(N)c(C(=O)c4c(F)cccc4F)s3)CC2)cn1` [Example H15, 1-(4-Amino-2-{1-[6-(3-dimethylamino-propoxy)-pyridine-3-sulfonyl]-piperidin-4-ylamino}-thiazol-5-yl)-1-(2,6-difluoro-phenyl)-methanone Hydrochloride], the Ki was found to be 0.64 nM on CDK2/Cyclin A and 0.34 nM in test [1]. The IC50 amounted to 71 nM in the test with HCT-116 cell line (first HCT-116 column (c4)) and 500 nM in the test with HCT-116 cell line (second HCT-116 column (c5)).

For `CN1CCCC(Oc2ccc(S(=O)(=O)N3CCC(Nc4nc(N)c(C(=O)c5c(F)cccc5F)s4)CC3)cn2)C1` (stereo not drawn) [Example H16, 1-(4-Amino-2-{1-[6-(1-methyl-piperidin-3RS-yloxy)-pyridin-3-sulfonyl]-piperidin-4-ylamino}-thiazol-5-yl)-1-(2,6-difluoro-phenyl)-methanone Hydrochloride], the Ki was found to be 0.48 nM on CDK2/Cyclin A and 0.28 nM in test [1]. The IC50 in the test on HCT-116 cell line (first HCT-116 column (c4)) turned out to be 57 nM; in the test on HCT-116 cell line (second HCT-116 column (c5)) it was 500 nM.

On to `CN(C)CCOc1ccc(S(=O)(=O)N2CCC(Nc3nc(N)c(C(=O)c4c(Cl)cccc4Cl)s3)CC2)cn1` [Example H17, 1-(4-Amino-2-{1-[6-(2-dimethylamino-ethoxy)-pyridine-3-sulfonyl]-piperidin-4-ylamino}-thiazol-5-yl)-1-(2,6-dichloro-phenyl)-methanone Hydrochloride Salt], for which the Ki on CDK2/Cyclin A stood at 1.8 nM; in test [1], 1.7 nM. The IC50 in the test with HCT-116 cell line (first HCT-116 column (c4)) was 50 nM; with HCT-116 cell line (second HCT-116 column (c5)) it was 170 nM.

On to `CCN(CC)CCOc1ccc(S(=O)(=O)N2CCC(Nc3nc(N)c(C(=O)c4c(F)cccc4F)s3)CC2)cn1` [Example H18, (4-Amino-2-{1-[6-(2-diethylamino-ethoxy)-pyridine-3-sulfonyl]-piperidin-4-ylamino}-thiazol-5-yl)-(2,6-difluoro-phenyl)-methanone Trifluoroacetic Acid Salt], for which the Ki on CDK2/Cyclin A worked out at 1.6 nM; in test [1] it was 0.3 nM. Further, the figures for the half-maximal inhibitory concentration (IC50) with HCT-116 cell line (first HCT-116 column (c4)) and in the test with HCT-116 cell line (second HCT-116 column (c5)) were 55 nM and > 500 nM, respectively.

For `CC(C)NCCOc1ccc(S(=O)(=O)N2CCC(Nc3nc(N)c(C(=O)c4c(F)cccc4F)s3)CC2)cn1` [Example H19, (4-Amino-2-{1-[6-(2-isopropylamino-ethoxy)-pyddine-3-sulfonyl]-piperidin-4-ylamino}-thiazol-5-yl)-(2,6-difluoro-phenyl)-methanone Hydrochloride Salt], the Ki came out at 1.5 nM at CDK2/Cyclin A and 0.52 nM in test [1]. Further, the results for the IC50 in the test on HCT-116 cell line (first HCT-116 column (c4)) and in the test on HCT-116 cell line (second HCT-116 column (c5)) were 180 nM and 2500 nM, respectively.

As for `CC(C)(C)NCCOc1ccc(S(=O)(=O)N2CCC(Nc3nc(N)c(C(=O)c4c(F)cccc4F)s3)CC2)cn1` [Example H20, (4-Amino-2-{1-[6-(2-tert-butylamino-ethoxy)-pyridine-3-sulfonyl]-piperidin-4-ylamino}-thiazol-5-yl)-(2,6-difluoro-phenyl)-methanone Hydrochloride Salt], the Ki at CDK2/Cyclin A was 1.5 nM; in test [1], 0.51 nM. The figures for the IC50 with HCT-116 cell line (first HCT-116 column (c4)) and with HCT-116 cell line (second HCT-116 column (c5)) were 380 nM and 3000 nM, respectively.
